Experimental data from ChEMBL document CHEMBL1201862, “PubChem BioAssay data set” (2004).
Calls of active or inactive are those of the source.

Experiments:
[1] = inhibitors of intracellular T. cruzi replication, confirmation, NIH3T3 host cells, beta-gal luminescence (AID 2044); format: functional, cell-based;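 also: intracellular parasites grown in NIH/3T3 mouse fibroblasts as host cells; luminescent beta-galactosidase reporter signal from transgenic T. cruzi replicating inside host cells; inhibitors lower the luminescence signal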
[2] = target: Neurotensin receptor type 1 (Homo sapiens, UniProt P30989); format: functional;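 also: Image-based confirmatory dose-response assay measuring agonist activity at NTR1; NTR1-expressing U2OS osteosarcoma cells imaged for beta-arrestin GFP spot formation; agonist potency where compounds increase beta-arrestin recruitment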
Neurotensin receptor type 1, sequence (P30989 whole entry): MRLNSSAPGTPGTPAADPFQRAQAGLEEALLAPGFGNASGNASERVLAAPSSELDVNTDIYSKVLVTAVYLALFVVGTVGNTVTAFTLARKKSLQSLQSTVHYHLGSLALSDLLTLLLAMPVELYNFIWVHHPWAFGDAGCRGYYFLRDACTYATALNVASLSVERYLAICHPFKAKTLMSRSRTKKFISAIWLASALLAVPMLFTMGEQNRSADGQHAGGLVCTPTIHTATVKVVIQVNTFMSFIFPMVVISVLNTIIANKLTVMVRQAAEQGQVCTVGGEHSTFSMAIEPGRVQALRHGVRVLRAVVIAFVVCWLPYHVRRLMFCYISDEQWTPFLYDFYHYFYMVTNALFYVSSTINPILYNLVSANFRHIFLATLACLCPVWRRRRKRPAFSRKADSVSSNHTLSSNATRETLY

[3] = cytotoxicity toward NIH3T3 fibroblasts, dose response, counter-screen, cell-based, ATP luminescence, mouse fibroblasts (AID 2010); format: functional;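 also: cells exposed to compound for about 90 hours before reading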
Hexokinase = Hexokinase (Trypanosoma brucei, UniProt Q38C41); test: Confirmation assay for inhibitors of Trypanosoma brucei hexokinase 1-Analogue-first series. [Related pubchem assays (depositor defined):AID1430, AID1632, AID2516, AID2560, AID2579, AID2600, AID449725, AID492951]; format: functional
Hexokinase, sequence (Q38C41 whole entry): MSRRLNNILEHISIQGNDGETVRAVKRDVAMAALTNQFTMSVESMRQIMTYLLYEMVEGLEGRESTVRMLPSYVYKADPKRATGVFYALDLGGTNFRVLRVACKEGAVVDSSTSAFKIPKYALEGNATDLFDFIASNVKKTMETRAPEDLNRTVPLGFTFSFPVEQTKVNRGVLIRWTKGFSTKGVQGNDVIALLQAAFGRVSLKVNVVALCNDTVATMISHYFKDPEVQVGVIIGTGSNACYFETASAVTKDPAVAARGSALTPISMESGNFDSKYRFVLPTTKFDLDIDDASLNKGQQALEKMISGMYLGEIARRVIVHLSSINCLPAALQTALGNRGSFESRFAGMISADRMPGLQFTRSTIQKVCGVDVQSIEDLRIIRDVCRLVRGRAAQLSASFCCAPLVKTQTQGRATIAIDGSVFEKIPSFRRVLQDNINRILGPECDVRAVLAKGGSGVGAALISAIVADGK

[4] = target: Metabotropic glutamate receptor 4 (Rattus norvegicus, UniProt P31423); test: Modulation of the Metabotropic Glutamate Receptor mGluR4: Rat PAM Potency. [Related pubchem assays (depositor defined):AID2437, AID2807]; format: functional
Metabotropic glutamate receptor 4 (Rattus norvegicus, UniProt P31423), sequence (P31423 whole entry): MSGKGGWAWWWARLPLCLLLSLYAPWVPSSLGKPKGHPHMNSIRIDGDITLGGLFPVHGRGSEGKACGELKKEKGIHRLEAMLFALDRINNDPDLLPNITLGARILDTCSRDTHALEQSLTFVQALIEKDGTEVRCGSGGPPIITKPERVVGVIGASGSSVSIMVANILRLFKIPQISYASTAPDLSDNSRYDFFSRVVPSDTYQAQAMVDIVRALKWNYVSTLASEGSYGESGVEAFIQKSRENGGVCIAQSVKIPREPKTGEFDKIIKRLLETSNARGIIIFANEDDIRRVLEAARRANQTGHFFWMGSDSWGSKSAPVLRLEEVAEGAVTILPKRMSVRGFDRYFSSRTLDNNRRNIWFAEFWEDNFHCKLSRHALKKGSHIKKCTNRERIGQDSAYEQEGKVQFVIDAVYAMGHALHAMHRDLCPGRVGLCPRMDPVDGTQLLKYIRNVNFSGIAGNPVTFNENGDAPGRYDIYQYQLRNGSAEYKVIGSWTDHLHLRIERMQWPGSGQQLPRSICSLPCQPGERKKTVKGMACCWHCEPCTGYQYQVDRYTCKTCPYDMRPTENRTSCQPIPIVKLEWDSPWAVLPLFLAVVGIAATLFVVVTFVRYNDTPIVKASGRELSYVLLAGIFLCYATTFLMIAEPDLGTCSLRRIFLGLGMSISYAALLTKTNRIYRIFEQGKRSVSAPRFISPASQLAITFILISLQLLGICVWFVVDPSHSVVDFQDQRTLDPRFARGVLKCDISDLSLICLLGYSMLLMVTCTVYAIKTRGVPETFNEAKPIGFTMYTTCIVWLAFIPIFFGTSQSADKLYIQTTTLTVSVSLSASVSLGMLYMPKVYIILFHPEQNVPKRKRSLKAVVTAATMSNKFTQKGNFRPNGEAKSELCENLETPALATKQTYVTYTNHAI

[5] = target: Metabotropic glutamate receptor 4 (Homo sapiens, UniProt Q14833); test: Modulation of the Metabotropic Glutamate Receptor mGluR4: Potency at human mGluR4. Modulation of intracellular Ca2+ using Fluo-4, AM, in CHO expressing recombinant receptor [Related pubchem assays (depositor defined):AID2437, AID2807]; format: functional, cell-based
Metabotropic glutamate receptor 4 (Homo sapiens, UniProt Q14833), sequence (Q14833 whole entry, the tested form may be a part): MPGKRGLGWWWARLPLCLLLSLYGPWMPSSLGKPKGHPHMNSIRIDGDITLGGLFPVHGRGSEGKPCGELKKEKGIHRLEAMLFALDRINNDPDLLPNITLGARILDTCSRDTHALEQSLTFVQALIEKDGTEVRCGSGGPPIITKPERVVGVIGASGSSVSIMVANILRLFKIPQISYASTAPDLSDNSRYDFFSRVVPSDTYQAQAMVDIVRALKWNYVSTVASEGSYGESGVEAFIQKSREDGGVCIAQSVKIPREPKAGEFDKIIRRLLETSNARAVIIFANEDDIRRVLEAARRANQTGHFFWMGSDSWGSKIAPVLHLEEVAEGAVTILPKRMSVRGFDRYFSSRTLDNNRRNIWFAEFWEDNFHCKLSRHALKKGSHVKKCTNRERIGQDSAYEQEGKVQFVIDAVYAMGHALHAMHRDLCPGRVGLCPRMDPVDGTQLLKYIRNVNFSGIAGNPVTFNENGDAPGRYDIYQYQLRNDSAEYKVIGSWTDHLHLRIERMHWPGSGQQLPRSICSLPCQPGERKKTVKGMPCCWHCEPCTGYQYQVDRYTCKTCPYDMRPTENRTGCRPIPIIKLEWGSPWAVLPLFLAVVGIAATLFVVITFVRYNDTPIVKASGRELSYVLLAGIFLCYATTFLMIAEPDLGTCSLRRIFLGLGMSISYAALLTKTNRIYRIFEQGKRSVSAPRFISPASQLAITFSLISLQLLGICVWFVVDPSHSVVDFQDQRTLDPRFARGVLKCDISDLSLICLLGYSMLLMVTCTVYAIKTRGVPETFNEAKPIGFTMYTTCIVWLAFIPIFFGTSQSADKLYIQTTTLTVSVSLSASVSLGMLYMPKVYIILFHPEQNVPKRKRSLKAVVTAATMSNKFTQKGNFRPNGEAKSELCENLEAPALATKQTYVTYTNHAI

[6] = target: NACHT, LRR and PYD domains-containing protein 3 (Homo sapiens, UniProt Q96P20); test: NALP3 inhibitors in yeast, dose response, luminescent (AID 488799); format: functional
NACHT, LRR and PYD domains-containing protein 3, sequence (Q96P20 whole entry, the tested form may be a part): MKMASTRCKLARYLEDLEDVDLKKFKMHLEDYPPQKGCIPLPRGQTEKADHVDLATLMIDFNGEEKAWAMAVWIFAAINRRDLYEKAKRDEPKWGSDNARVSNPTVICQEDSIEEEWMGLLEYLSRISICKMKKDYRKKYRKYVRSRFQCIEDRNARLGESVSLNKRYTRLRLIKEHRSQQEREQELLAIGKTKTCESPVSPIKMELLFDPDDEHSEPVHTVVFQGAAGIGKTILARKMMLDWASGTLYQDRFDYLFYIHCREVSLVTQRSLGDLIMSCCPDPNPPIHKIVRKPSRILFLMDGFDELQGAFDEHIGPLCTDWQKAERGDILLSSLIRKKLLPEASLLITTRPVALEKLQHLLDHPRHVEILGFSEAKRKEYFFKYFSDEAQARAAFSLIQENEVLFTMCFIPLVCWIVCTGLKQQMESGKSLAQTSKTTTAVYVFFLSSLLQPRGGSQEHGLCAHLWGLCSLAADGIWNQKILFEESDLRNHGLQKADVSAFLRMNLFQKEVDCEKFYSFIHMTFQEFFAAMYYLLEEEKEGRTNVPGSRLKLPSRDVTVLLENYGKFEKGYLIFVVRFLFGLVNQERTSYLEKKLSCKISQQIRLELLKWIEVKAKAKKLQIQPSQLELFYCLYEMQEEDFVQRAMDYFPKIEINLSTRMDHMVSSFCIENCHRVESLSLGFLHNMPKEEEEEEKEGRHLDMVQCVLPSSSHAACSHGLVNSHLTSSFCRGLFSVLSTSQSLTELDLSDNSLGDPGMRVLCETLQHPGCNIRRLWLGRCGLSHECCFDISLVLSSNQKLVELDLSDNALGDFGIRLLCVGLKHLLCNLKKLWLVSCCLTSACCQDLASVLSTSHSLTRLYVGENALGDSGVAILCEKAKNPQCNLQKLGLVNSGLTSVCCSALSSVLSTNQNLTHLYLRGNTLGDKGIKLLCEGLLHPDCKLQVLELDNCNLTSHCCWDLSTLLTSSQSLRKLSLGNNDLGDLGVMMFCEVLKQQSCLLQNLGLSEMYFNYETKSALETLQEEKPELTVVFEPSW

[7] = A Cell Based Secondary Assay To Explore Cytotoxicity of Compounds that Sensitize Mycobacterium Tuberculosis to Beta-Lactam Antibiotics.; format: functional
[8] = target: T1, Kappa-type opioid receptor (Homo sapiens, UniProt P41145); format: functional
T1 sequence (P41145 whole entry): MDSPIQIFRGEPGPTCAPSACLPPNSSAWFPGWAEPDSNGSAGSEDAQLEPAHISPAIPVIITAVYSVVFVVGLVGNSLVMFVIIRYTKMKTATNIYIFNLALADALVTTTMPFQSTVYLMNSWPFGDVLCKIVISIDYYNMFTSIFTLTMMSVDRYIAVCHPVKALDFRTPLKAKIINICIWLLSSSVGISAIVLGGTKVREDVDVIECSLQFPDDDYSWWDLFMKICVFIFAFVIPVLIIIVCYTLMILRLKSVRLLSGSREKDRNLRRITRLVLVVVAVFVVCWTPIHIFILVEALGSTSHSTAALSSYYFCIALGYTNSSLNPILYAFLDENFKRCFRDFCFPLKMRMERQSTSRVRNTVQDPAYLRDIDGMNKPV

[9] = target: T2, Delta-type opioid receptor (Homo sapiens, UniProt P41143); test: DOR antagonists, SAR follow-up, image-based (AID 2357); format: functional
T2 sequence (P41143 whole entry): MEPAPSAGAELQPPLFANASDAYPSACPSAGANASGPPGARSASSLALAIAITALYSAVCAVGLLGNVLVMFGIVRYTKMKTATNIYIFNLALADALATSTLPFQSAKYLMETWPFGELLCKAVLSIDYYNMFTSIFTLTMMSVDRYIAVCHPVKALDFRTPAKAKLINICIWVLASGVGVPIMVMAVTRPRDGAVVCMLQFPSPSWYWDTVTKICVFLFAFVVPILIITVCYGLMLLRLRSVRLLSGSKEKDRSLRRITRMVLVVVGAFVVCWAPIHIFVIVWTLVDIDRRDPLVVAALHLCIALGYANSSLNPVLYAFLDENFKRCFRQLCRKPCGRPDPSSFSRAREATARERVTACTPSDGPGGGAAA

[10] = target: T2, Delta-type opioid receptor; test: HTS Image-Based Screen for Antagonists of the DOR Receptor. [Related pubchem assays (depositor defined):AID1777, AID1785, AID1786, AID2133]; format: functional
[11] = target: T2, Delta-type opioid receptor; test: HTS Image-Based Screen for Agonists of the DOR Receptor. [Related pubchem assays (depositor defined):AID1777, AID1786, AID2133]; format: functional
[12] = target: T1, Kappa-type opioid receptor; test: SAR analysis of small molecule agonists of the kappa opioid receptor via a luminescent beta-arrestin assay. [Related pubchem assays (depositor defined):AID1777, AID1786, AID1966, AID2133, AID2136, AID2348, AID2352, AID2357, AID2359, AID2370, AID2420, AID2478, AID2491, AID2492, AID2493, AID2497, AID2498, AID2500, AID449737, AID488822, AID488842]; format: functional
[13] = target: T1, Kappa-type opioid receptor; format: functional; remark: listed apart in the source
[14] = target: T1, Kappa-type opioid receptor; test: KOR antagonists by imaging, SAR follow-up, image-based (AID 2348); format: functional
Mu-type opioid receptor [15] = target: T3, Mu-type opioid receptor (Homo sapiens, UniProt P35372); test: HTS Image-Based Screen for Agonists of the MOR Receptor. [Related pubchem assays (depositor defined):AID1777, AID1785, AID1786, AID2133]; format: functional
T3 sequence (P35372 whole entry): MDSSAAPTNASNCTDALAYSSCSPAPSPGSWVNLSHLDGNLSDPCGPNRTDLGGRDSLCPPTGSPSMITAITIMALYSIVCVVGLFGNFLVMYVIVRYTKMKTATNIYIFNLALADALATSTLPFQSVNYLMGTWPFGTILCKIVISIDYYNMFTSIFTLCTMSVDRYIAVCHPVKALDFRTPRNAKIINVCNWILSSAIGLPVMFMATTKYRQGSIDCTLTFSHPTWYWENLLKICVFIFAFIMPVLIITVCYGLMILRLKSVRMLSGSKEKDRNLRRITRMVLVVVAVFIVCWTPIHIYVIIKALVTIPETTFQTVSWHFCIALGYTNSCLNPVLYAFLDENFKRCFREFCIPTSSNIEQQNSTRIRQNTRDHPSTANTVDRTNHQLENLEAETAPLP

[16] = target: T1, Kappa-type opioid receptor; test: KOR agonist analogs, imaging readout, SAR follow-up, image-based (AID 2359); format: functional
Mu-type opioid receptor [17] = target: T3, Mu-type opioid receptor; test: MOR antagonists, SAR follow-up, image-based (AID 2420); format: functional;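 also: compounds added before stimulation of receptor with agonist DAMGO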
Mu-type opioid receptor [18] = target: T3, Mu-type opioid receptor; test: MOR agonists by imaging, SAR follow-up, image-based (AID 2352); format: functional
[19] = target: T2, Delta-type opioid receptor; test: DOR agonists, SAR follow-up, image-based (AID 2370); format: functional

In the case of `O=C(Nc1ccc([N+](=O)[O-])cc1)Nc1ccc(N2CCOCC2)c2nonc12`, the EC50 [1] is reported as 3.77 µM (active), the EC50 [2] is reported as > 40 µM (inactive) and the EC50 [3] is reported as > 30 µM (not active).
With `COc1ccc(C(=O)Nc2c(C(=O)O)ccc(Cl)c2Cl)cc1` the IC50 (Hexokinase) was > 25 µM (inactive).
In the case of `O=C(Nc1ccc(Cl)c(Cl)c1)c1ccno1`, the EC50 [4] is reported as 11.1 µM (active) and the EC50 [5] is reported as 11.8 µM (active).
In the case of `O=C(CCS(=O)(=O)c1ccccc1)N(CCCN1CCOCC1)c1nc2c(F)cccc2s1`, the IC50 [6] is reported as 2.07 µM (active), the CC50 [7] is reported as > 40 µM (active) and the EC50 [1] is reported as 3.11 µM (active). For the same compound, the EC50 [3] was 4.45 µM (active).
With `CCC(C)(C(=O)NC1CCCCC1)N(Cc1ccco1)C(=O)c1cnccn1` (configuration not stated) the EC50 [8] was 1.75 µM, the IC50 [9] was > 32 µM (inactive) and the IC50 [10] was > 32 µM (inactive). The EC50 [11] was > 32 µM (inactive), the EC50 [12] was 3.71 µM (active) and the EC50 [13] was 2.47 µM. The IC50 [14] was > 32 µM (inactive), the EC50 (Mu-type opioid receptor [15]) was > 32 µM (inactive) and the EC50 [16] was 1.36 µM (active). For the same compound, the IC50 (Mu-type opioid receptor [17]) was > 32 µM (inactive), the EC50 (Mu-type opioid receptor [18]) was > 32 µM (inactive) and the EC50 [19] was > 32 µM (inactive).
